Source: patent US20090018134A1, “Compounds - 945” (AstraZeneca AB, priority 2007, published 2009)

What follows are molecules tested against T1, mTOR (Homo sapiens, UniProt P42345) (assay: In Vitro mTOR Kinase Assay (Echo), Test (a)(ii)). Conditions: table of enzyme assay Test (a)(ii); read-out: Test (a)(ii) IC50.
T1 construct: FLAG; made in house
Format: biochemical
Summary of the method: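 FLAG-tagged human mTOR truncation (residues 1362-2549) expressed in HEK293 cells and FLAG-purified. Compounds dispensed acoustically, reaction 2 h at room temperature, stopped with EDTA. Phosphorylation of biotinylated peptide detected by AlphaScreen with anti-p70 S6K (T389) antibody overnight; IC50 reported.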

T1 sequence (P42345 1362-2549): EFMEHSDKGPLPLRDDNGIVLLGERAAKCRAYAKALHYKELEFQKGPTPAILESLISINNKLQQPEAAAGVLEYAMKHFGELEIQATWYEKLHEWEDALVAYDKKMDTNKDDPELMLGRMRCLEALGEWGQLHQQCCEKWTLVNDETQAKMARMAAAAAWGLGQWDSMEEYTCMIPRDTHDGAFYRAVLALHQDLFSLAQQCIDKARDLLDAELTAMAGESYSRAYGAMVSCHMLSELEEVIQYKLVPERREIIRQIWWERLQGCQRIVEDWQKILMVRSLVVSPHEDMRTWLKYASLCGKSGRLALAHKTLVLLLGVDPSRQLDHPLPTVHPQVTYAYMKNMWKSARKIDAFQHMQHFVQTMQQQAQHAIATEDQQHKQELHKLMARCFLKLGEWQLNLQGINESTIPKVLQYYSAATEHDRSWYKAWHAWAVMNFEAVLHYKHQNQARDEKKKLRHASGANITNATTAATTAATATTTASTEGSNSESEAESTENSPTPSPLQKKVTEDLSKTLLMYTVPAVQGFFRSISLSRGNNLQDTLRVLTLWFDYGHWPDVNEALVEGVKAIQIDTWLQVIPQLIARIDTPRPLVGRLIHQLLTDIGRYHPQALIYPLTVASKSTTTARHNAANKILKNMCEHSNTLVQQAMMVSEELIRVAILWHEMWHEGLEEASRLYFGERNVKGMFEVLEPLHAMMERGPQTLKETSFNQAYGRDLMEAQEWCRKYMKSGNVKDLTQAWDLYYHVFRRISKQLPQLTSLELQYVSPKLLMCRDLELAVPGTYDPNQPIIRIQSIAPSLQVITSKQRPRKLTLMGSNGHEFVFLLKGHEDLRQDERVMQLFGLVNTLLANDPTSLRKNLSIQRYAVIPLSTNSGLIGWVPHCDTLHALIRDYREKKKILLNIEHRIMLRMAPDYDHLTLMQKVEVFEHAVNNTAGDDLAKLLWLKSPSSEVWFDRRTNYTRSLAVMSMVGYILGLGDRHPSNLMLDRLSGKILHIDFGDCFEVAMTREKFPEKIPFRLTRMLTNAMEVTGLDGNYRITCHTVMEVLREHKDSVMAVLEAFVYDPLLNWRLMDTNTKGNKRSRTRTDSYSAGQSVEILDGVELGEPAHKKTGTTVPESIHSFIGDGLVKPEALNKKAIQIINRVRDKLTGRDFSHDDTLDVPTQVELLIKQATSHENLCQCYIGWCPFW

IC50	SMILES
3.82 nM	C[C@H]1COCCN1c1cc(C2(S(=O)(=O)c3c(F)cccc3F)CC2)nc(-c2ccc(NC(=O)NCCF)cc2)n1 [Example 86d, 1-[4-[4-[1-(2,6-difluorophenyl)sulfonylcyclopropyl]-6-[(3S)-3-methylmorpholin-4-yl]pyrimidin-2-yl]phenyl]-3-(2-fluoroethyl)urea]
2.23 nM	C[C@H]1COCCN1c1cc(C2(S(=O)(=O)c3c(F)cccc3F)CC2)nc(-c2ccc(NC(=O)NCC(F)F)cc2)n1 [Example 86e, 3-(2,2-difluoroethyl)-1-[4-[4-[1-(2,6-difluorophenyl)sulfonylcyclopropyl]-6-[(3S)-3-methylmorpholin-4-yl]pyrimidin-2-yl]phenyl]urea]
3.45 nM	C[C@H]1COCCN1c1cc(C2(S(=O)(=O)c3c(F)cccc3F)CC2)nc(-c2ccc(NC(=O)Nc3cnn(C)c3)cc2)n1 [Example 86f, 1-[4-[4-[1-(2,6-difluorophenyl)sulfonylcyclopropyl]-6-[(3S)-3-methylmorpholin-4-yl]pyrimidin-2-yl]phenyl]-3-(1-methylpyrazol-4-yl)urea]
4.87 nM	CCS(=O)(=O)C1(c2cc(N3CCOC[C@@H]3C)nc(-c3ccc(NC(=O)NCCO)cc3)n2)CCC1 [Example 87, 1-[4-[4-(1-Ethylsulfonylcyclobutyl)-6-[(3S)-3-methylmorpholin-4-yl]pyrimidin-2-yl]phenyl]-3-(2-hydroxyethyl)urea]
88.7 nM	CCS(=O)(=O)C1(c2cc(N3CCOC[C@@H]3C)nc(-c3ccc(NC(=O)NCc4ncc[nH]4)cc3)n2)CCC1 [Example 87a, 1-[4-[4-(1-ethylsulfonylcyclobutyl)-6-[(3S)-3-methylmorpholin-4-yl]pyrimidin-2-yl]phenyl]-3-(1H-imidazol-2-ylmethyl)urea]
17.7 nM	CCS(=O)(=O)C1(c2cc(N3CCOC[C@@H]3C)nc(-c3ccc(NC(=O)NCCCO)cc3)n2)CCC1 [Example 87b, 1-[4-[4-(1-ethylsulfonylcyclobutyl)-6-[(3S)-3-methylmorpholin-4-yl]pyrimidin-2-yl]phenyl]-3-(3-hydroxypropyl)urea]
7.75 nM	CCS(=O)(=O)C1(c2cc(N3CCOC[C@@H]3C)nc(-c3ccc(NC(=O)NC)cc3)n2)CCC1 [Example 87c, 1-[4-[4-(1-ethylsulfonylcyclobutyl)-6-[(3S)-3-methylmorpholin-4-yl]pyrimidin-2-yl]phenyl]-3-methylurea]
17.7 nM	CCS(=O)(=O)C1(c2cc(N3CCOC[C@@H]3C)nc(-c3ccc(NC(=O)NC(C)(C)CO)cc3)n2)CCC1 [Example 87d, 1-[4-[4-(1-ethylsulfonylcyclobutyl)-6-[(3S)-3-methylmorpholin-4-yl]pyrimidin-2-yl]phenyl]-3-(1-hydroxy-2-methylpropan-2-yl)urea]
10.3 nM	CCS(=O)(=O)C1(c2cc(N3CCOC[C@@H]3C)nc(-c3ccc(NC(=O)N[C@@H](C)CO)cc3)n2)CCC1 [Example 87e, 1-[4-[4-(1-ethylsulfonylcyclobutyl)-6-[(3S)-3-methylmorpholin-4-yl]pyrimidin-2-yl]phenyl]-3-[(2S)-1-hydroxypropan-2-yl]urea]
9.07 nM	CCS(=O)(=O)C1(c2cc(N3CCOC[C@@H]3C)nc(-c3ccc(NC(=O)N[C@H](C)CO)cc3)n2)CCC1 [Example 87f, 1-[4-[4-(1-ethylsulfonylcyclobutyl)-6-[(3S)-3-methylmorpholin-4-yl]pyrimidin-2-yl]phenyl]-3-[(2R)-1-hydroxypropan-2-yl]urea]
32.1 nM	CCS(=O)(=O)C1(c2cc(N3CCOC[C@@H]3C)nc(-c3ccc(NC(=S)NCCCO)cc3)n2)CCC1 [Example 88, 1-[4-[4-(1-Ethylsulfonylcyclobutyl)-6-[(3S)-3-methylmorpholin-4-yl]pyrimidin-2-yl]phenyl]-3-(3-hydroxypropyl)thiourea]
4.48 nM	CCS(=O)(=O)C1(c2cc(N3CCOC[C@@H]3C)nc(-c3ccc(NC(=S)NCCO)cc3)n2)CCC1 [Example 88a, 1-[4-[4-(1-ethylsulfonylcyclobutyl)-6-[(3S)-3-methylmorpholin-4-yl]pyrimidin-2-yl]phenyl]-3-(2-hydroxyethyl)thiourea]
56.7 nM	CCS(=O)(=O)C1(c2cc(N3CCOC[C@@H]3C)nc(-c3ccc(NC(=S)NCc4ncc[nH]4)cc3)n2)CCC1 [Example 88b, 1-[4-[4-(1-ethylsulfonylcyclobutyl)-6-[(3S)-3-methylmorpholin-4-yl]pyrimidin-2-yl]phenyl]-3-(1H-imidazol-2-ylmethyl)thiourea]
47 nM	CCS(=O)(=O)C1(c2cc(N3CCOC[C@@H]3C)nc(-c3ccc(NC(=S)NCCCO)cc3)n2)CC1 [Example 88c, 1-[4-[4-(1-ethylsulfonylcyclopropyl)-6-[(3S)-3-methylmorpholin-4-yl]pyrimidin-2-yl]phenyl]-3-(3-hydroxypropyl)thiourea]
4 nM	CCS(=O)(=O)C1(c2cc(N3CCOC[C@@H]3C)nc(-c3ccc(NC(=S)NCCO)cc3)n2)CC1 [Example 88d, 1-[4-[4-(1-ethylsulfonylcyclopropyl)-6-[(3S)-3-methylmorpholin-4-yl]pyrimidin-2-yl]phenyl]-3-(2-hydroxyethyl)thiourea]
485 nM	CCNC(=O)Nc1ccc(-c2nc(N3CCOCC3C(N)=O)cc(C3(S(=O)(=O)c4ccccc4)CC3)n2)cc1 (stereo not shown) [Example 89, 4-[6-[1-(Benzenesulfonyl)cyclopropyl]-2-[4-(ethylcarbamoylamino)phenyl]pyrimidin-4-yl]morpholine-3-carboxamide]
18.9 nM	CCNC(=O)Nc1ccc(-c2nc(N3CCOCC3C(=O)N(C)C)cc(C3(S(=O)(=O)c4ccccc4)CC3)n2)cc1 (stereo not shown) [Example 90, 4-[6-[1-(Benzenesulfonyl)cyclopropyl]-2-[4-(ethylcarbamoylamino)phenyl]pyrimidin-4-yl]-N,N-dimethylmorpholine-3-carboxamide]
4.98 nM	C[C@H]1COC[C@H](C)N1c1cc(C2(S(C)(=O)=O)CC2)nc(-c2ccc(NC(=O)NC3CC3)cc2)n1 [Example 91, 3-Cyclopropyl-1-[4-[4-[(3S,5S)-3,5-dimethylmorpholin-4-yl]-6-(1-methylsulfonylyclopropyl)pyrimidin-2-yl]phenyl]urea]
1.98 nM	CNC(=O)Nc1ccc(-c2nc(N3[C@@H](C)COC[C@@H]3C)cc(C3(S(C)(=O)=O)CC3)n2)cc1 [Example 91a, 1-[4-[4-[(3S,5S)-3,5-dimethylmorpholin-4-yl]-6-(1-methylsulfonylcyclopropyl)pyrimidin-2-yl]phenyl]-3-methylurea]
5.21 nM	CCNC(=O)Nc1ccc(-c2nc(N3[C@@H](C)COC[C@@H]3C)cc(C3(S(C)(=O)=O)CC3)n2)cc1 [Example 91b, 1-[4-[4-[(3S,5S)-3,5-dimethylmorpholin-4-yl]-6-(1-methylsulfonylcyclopropyl)pyrimidin-2-yl]phenyl]-3-ethylurea]
3.68 nM	C[C@H]1COC[C@H](C)N1c1cc(C2(S(C)(=O)=O)CC2)nc(-c2ccc(NC(=O)NCCF)cc2)n1 [Example 91c, 1-[4-[4-[(3S,5S)-3,5-dimethylmorpholin-4-yl]-6-(1-methylsulfonylcyclopropyl)pyrimidin-2-yl]phenyl]-3-(2-fluoroethyl)urea]
3.56 nM	C[C@H]1COC[C@H](C)N1c1cc(C2(S(C)(=O)=O)CC2)nc(-c2ccc(NC(=O)NCCO)cc2)n1 [Example 91d, 1-[4-[4-[(3S,5S)-3,5-dimethylmorpholin-4-yl]-6-(1-methylsulfonylcyclopropyl)pyrimidin-2-yl]phenyl]-3-(2-hydroxyethyl)urea]
